Assay results from ChEMBL document CHEMBL3585280, “2-Aminopyridines with a Truncated Side Chain To Improve Human Neuronal Nitric Oxide Synthase Inhibitory Potency and Selectivity” (J Med Chem, 2015).

Columns and labels:
Format in all cases: ADME, organism-based
Brain [1] = test: AUClast in BALB/c mouse brain at 2 mg/kg, iv; settings: in vivo
Brain [2] = test: AUClast in BALB/c mouse brain at 10 mg/kg, po; settings: in vivo
[3] = Cmax in BALB/c mouse brain at 2 mg/kg, iv; design: dose 2 mg/kg, route intravenous
[4] = Cmax in BALB/c mouse plasma at 2 mg/kg, iv; design: dose 2 mg/kg, route intravenous

SMILES: CNCCN(C)c1cc(C#N)cc(CCc2cc(C)cc(N)n2)c1
- AUClast (Brain [1]): 789.07 ng·h/g
- AUClast (Brain [2]): 673.67 ng·h/g
- Cmax [3]: 100 ng/g
- Cmax [4]: 472 ng/mL
